Laboratory results published in patent US20090270398A1, “Compounds, Compositions and Methods Comprising Pyridazine Derivatives” (Institute for OneWorld Health, priority 2008, published 2009).
pIC50: −log10 of the molar value.

Target: T1, CFTR (Homo sapiens, UniProt P13569)
T1 construct: results in the phosphorylation and opening of CFTR anion channels
Test: T84 assay (FLIPR membrane potential, forskolin/IBMX-stimulated CFTR channel activity)
Type: cell-based
Conditions: average of at least 2 runs unless annotated n = 1
Method: (§1) For example, Human colonic T84 cells can be acquired from the European Collection of Cell Cultures (ECACC) and grown in standard culture conditions as described by the supplier. On the day before assay 25,000 T84 cells per well are plated into standard black walled, clear bottom 384-well assay plates in standard growth medium consisting of DMEM:F12 with 10% FBS and incubated overnight. On the day of the assay the plates are washed using a standard assay buffer (HBSS with 10 mM Hepes) and incubated for 15 minutes in serum free cell culture medium before the addition of a commercially available membrane potential sensitive fluorescent dye (FLIPR Red membrane potential dye, Molecular Devices Corporation). T84 cells are incubated with the FLIPR Red membrane potential dye for 45 minutes in the presence and absence of test compound before being transferred to a commercially available fluorescence imaging plate reader (FLIPR384, Molecular Devices Corporation). Fluorescence levels are monitored continuously every second for 150 seconds; after an initial 10 second baseline, CFTR channel activity is stimulated through the addition of 10 μM forskolin in the presence of 100 μM of the phosphodiesterase inhibitor iso-butyl-methylxanthine (IBMX). Addition of the forskolin leads to the activation of intracellular adenylyl cylase 1, elevating cAMP levels and results in the phosphorylation and opening of CFTR anion channels. CFTR channel opening causes chloride ion efflux and subsequent depolarization of the cells, which is measured by an increase in fluorescence. CFTR inhibitor compounds prevent cell depolarization and the associated increase in fluorescence.
as §1, with “Human colonic” for “For example, Human colonic”, “T84 cells are acquired from” for “T84 cells can be acquired from”, “(ECACC) and are grown in” for “(ECACC) and grown in”
Unless otherwise indicated, the IC50 values are reported as an average of at least 2 runs. Where only 1 run is used, this is indicated by the annotation “n=1.”

T1 sequence (P13569 whole entry): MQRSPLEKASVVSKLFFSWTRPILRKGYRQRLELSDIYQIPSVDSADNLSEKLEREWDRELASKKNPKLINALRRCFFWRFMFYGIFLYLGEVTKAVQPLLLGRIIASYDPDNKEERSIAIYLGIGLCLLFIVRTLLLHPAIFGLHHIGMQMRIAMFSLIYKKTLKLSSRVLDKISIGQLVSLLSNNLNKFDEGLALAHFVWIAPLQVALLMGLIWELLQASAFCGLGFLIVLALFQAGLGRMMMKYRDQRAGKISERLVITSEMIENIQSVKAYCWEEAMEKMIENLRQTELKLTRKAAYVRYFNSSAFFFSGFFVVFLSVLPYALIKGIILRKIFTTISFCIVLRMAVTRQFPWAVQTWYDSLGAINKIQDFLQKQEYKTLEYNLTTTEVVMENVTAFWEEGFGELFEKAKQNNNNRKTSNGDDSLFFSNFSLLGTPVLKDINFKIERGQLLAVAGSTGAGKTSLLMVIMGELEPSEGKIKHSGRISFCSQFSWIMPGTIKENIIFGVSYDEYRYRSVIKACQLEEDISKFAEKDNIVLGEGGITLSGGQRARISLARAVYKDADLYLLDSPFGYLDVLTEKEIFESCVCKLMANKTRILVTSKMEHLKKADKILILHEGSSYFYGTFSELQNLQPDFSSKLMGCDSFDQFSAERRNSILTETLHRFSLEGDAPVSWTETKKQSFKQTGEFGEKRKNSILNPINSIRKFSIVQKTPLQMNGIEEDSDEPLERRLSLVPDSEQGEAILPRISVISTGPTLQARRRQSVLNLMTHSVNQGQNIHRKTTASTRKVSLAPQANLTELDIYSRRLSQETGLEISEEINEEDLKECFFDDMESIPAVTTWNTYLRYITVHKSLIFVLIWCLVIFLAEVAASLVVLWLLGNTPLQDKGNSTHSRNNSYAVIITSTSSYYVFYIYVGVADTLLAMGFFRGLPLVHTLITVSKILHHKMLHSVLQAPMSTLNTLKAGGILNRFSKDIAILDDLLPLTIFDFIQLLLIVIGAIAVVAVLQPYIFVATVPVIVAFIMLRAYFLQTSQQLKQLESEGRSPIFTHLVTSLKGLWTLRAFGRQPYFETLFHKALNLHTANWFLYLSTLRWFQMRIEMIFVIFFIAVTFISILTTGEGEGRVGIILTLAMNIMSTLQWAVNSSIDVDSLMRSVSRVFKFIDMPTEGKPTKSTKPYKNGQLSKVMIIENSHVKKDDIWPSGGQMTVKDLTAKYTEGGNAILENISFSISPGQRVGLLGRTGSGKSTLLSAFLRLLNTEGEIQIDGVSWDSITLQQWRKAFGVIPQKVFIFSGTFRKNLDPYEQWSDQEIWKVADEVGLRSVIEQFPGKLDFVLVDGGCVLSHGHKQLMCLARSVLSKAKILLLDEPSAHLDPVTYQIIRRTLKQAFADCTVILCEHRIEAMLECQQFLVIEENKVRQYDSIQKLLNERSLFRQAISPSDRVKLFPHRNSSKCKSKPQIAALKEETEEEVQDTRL

SMILES | pIC50
CC(C)(C)OC(=O)N1CCC(COc2ccc(-c3cc(Cl)c(O)c(Cl)c3)nn2)(c2ccccc2)CC1 [Compound 101, tert-butyl 4-((6-(3,5-dichloro-4-hydroxyphenyl)pyridazin-3-yloxy)methyl)-4-phenylpiperidine-1-carboxylate] | 4.90
Oc1c(Cl)cc(-c2ccc(NCc3cc(F)cc(C(F)(F)F)c3)nn2)cc1Cl [Compound 138, 2,6-dichloro-4-(6-(3-fluoro-5-(trifluoromethyl)benzylamino)pyridazin-3-yl)phenol] | 5.02
OCCN(Cc1ccccc1Cl)c1ccc(-c2cc(Cl)c(O)c(Cl)c2)nn1 [Compound 112, 2,6-dichloro-4-(6-((2-chlorobenzyl)(2-hydroxyethyl)amino)pyridazin-3-yl)phenol] | 5.82
Oc1c(Cl)cc(-c2ccc(OCCc3cccc(Cl)c3)nn2)cc1Cl [Compound 104, 2,6-dichloro-4-(6-(3-chlorophenethoxy)pyridazin-3-yl)phenol] | 4.98
Oc1c(Br)cc(-c2ccc(OCCc3cccc(Cl)c3Cl)nn2)cc1Br [Compound 94, 2,6-dibromo-4-(6-(2,3-dichlorophenethoxy)pyridazin-3-yl)phenol] | 5.10
Oc1c(Br)cc(-c2ccc(OCCc3cccc4ccccc34)nn2)cc1Br [Compound 100, 2,6-dibromo-4-(6-(2-(naphthalen-1-yl)ethoxy)pyridazin-3-yl)phenol] | 4.60
CN(Cc1ccc(-c2ccncc2)cc1)c1ccc(-c2cc(Cl)c(O)c(Cl)c2)nn1 [Compound 125, 2,6-dichloro-4-(6-(methyl(4-(pyridin-4-yl)benzyl)amino)pyridazin-3-yl)phenol] | 5.69
CN(C)CCCOc1ccc(CN2CCC(COc3ccc(-c4cc(Cl)c(O)c(Cl)c4)nn3)(c3ccccc3)CC2)cc1 [Compound 107, 2,6-dichloro-4-(6-((1-(4-(3-(dimethylamino)propoxy)benzyl)-4-phenylpiperidin-4-yl)methoxy)pyridazin-3-yl)phenol] | 5.55
OCCN(Cc1ccncc1)c1ccc(-c2cc(Cl)c(O)c(Cl)c2)nn1 [Compound 116, 2,6-dichloro-4-(6-((2-hydroxyethyl)(pyridin-4-ylmethyl)amino)pyridazin-3-yl)phenol] | 4.78
OCCN(Cc1cccnc1)c1ccc(-c2cc(Cl)c(O)c(Cl)c2)nn1 [Compound 109, 2,6-dichloro-4-(6-((2-hydroxyethyl)(pyridin-3-ylmethyl)amino)pyridazin-3-yl)phenol] | 5.33
CN(Cc1ccc2ncccc2c1)c1ccc(-c2cc(Cl)c(O)c(Cl)c2)nn1 [Compound 132, 2,6-dichloro-4-(6-(methyl(quinolin-6-ylmethyl)amino)pyridazin-3-yl)phenol] | 5.17
CC(Oc1ccc(-c2cc(Br)c(O)c(Br)c2)nn1)c1cccc(Cl)c1 (centres unmarked) [Compound 90, 2,6-dibromo-4-(6-(1-(3-chlorophenyl)ethoxy)pyridazin-3-yl)phenol] | 4.75

Compounds with a higher pIC50, results first:

pIC50 | SMILES
6.14 | Oc1c(Cl)cc(-c2ccc(NCc3ccccc3)nn2)cc1Cl [Compound 110, 4-(6-(benzylamino)pyridazin-3-yl)-2,6-dichlorophenol]
6.42 | Oc1c(Cl)cc(-c2ccc(N(Cc3ccccc3)Cc3ccccc3)nn2)cc1Cl [Compound 133, 2,6-dichloro-4-(6-(dibenzylamino)pyridazin-3-yl)phenol]
6.43 | OCCN(Cc1ccc(F)cc1)c1ccc(-c2cc(Cl)c(O)c(Cl)c2)nn1 [Compound 111, 2,6-dichloro-4-(6-((4-fluorobenzyl)(2-hydroxyethyl)amino)pyridazin-3-yl)phenol]
6.64 | CN(Cc1ccc(F)c(F)c1)c1ccc(-c2cc(Cl)c(O)c(Cl)c2)nn1 [Compound 121, 2,6-dichloro-4-(6-((3,4-difluorobenzyl)(methyl)amino)pyridazin-3-yl)phenol]
7.70 | CCCN(Cc1ccccc1)c1ccc(-c2cc(Cl)c(O)c(Cl)c2)nn1 [Compound 126, 4-(6-(benzyl(propyl)amino)pyridazin-3-yl)-2,6-dichlorophenol]
